According to ChEMBL document CHEMBL1201862, “PubChem BioAssay data set” (2004):
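Test compounds were applied to cells in 96-well plates for 48 hours at 5 doses. GI50 is the concentration that inhibits growth by half.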 Active and inactive are the calls of the source. No stated cut-off is given here; in the data, active = GI50 up to about 1.1 µM and inactive = higher.

Key:
Experiment in all cases: NCI anticancer screen, dose series, 48 h
[1] = tested on: 786-0
[2] = tested on: CAKI-1
[3] = tested on: CCRF-CEM
[4] = tested on: DU-145
[5] = tested on: HL-60
[6] = tested on: K562
[7] = tested on: MCF7
[8] = tested on: MOLT-4
[9] = tested on: Malme-3M
[10] = tested on: NCI-H226
[11] = tested on: OVCAR-4
[12] = tested on: OVCAR-5
[13] = tested on: RPMI-8226
[14] = tested on: RXF 393
[15] = tested on: SK-MEL-2
[16] = tested on: SK-MEL-5
[17] = tested on: SR
[18] = tested on: TK-10
[19] = tested on: UACC-257
[20] = tested on: UACC-62

Measured: GI50

N#CC(=C1CCCCC1)c1nc2ccccc2o1
inactive: [1] > 100 µM | [2] 64.1 µM | [3] 49.1 µM | [4] > 100 µM | [5] 35.2 µM | [6] 69.8 µM | [7] 53.1 µM | [8] > 100 µM | [9] > 100 µM | [10] 56.2 µM | [11] 52.8 µM | [12] > 100 µM | [13] 25.9 µM | [14] > 100 µM | [15] > 100 µM | [16] 41.4 µM | [17] 37.9 µM | [18] > 100 µM | [19] > 100 µM | [20] 68.9 µM

CCOc1cc(NC(C)=O)ccc1C(=O)NN1C(=O)C(Cl)C1c1ccccc1 (stereo not given)
inactive: [1] 14.6 µM | [2] 15.4 µM | [3] 2.67 µM | [4] 17.6 µM | [5] 14.1 µM | [6] 5.32 µM | [7] 7.74 µM | [8] 3.68 µM | [9] 11.2 µM | [10] 12.7 µM | [11] 13.5 µM | [12] 17.4 µM | [13] 9.95 µM | [14] 13.6 µM | [15] 14.3 µM | [16] 10.1 µM | [17] 4.34 µM | [18] 16.6 µM | [19] 11.9 µM | [20] 11 µM

O=C(Nc1ccc(Cl)cc1)c1cc(S(=O)(=O)NC2=Nc3ccc(Cl)cc3C(c3ccccc3)N2)c(SSc2cc(Cl)c(C(=O)Nc3ccc(Cl)cc3)cc2S(=O)(=O)NC2=Nc3ccc(Cl)cc3C(c3ccccc3)N2)cc1Cl (stereo not given)
inactive: [1] > 100 µM | [2] > 100 µM | [3] 17.1 µM | [4] > 100 µM | [5] 3.37 µM | [6] 46.8 µM | [7] > 100 µM | [8] 25.9 µM | [9] > 100 µM | [10] > 100 µM | [11] > 100 µM | [12] 83.4 µM | [13] 97.1 µM | [14] > 100 µM | [15] > 100 µM | [16] > 73.3 µM | [17] 16.5 µM | [18] > 100 µM | [19] > 100 µM | [20] > 90.4 µM

COc1ccc(C2=Nc3cc(C)c(C)cc3NC(c3ccccc3)C2)cc1 (stereo not given)
inactive: [1] > 100 µM | [2] > 100 µM | [3] 17.3 µM | [4] > 100 µM | [5] 18.7 µM | [6] 21.9 µM | [7] 6.46 µM | [8] 16.3 µM | [9] 40.5 µM | [10] > 100 µM | [11] > 100 µM | [12] > 100 µM | [13] 15.9 µM | [14] > 100 µM | [15] > 100 µM | [16] 29.6 µM | [17] 4.86 µM | [18] > 100 µM | [19] 34.4 µM | [20] > 100 µM
